Literature values, collected in patent US20250222014A1, “COMPOSITION FOR LOCALIZED FAT REDUCTION WITHOUT PAIN, EDEMA AND SIDE EFFECTS AND METHOD OF ADMINISTRATION THEREOF” (AMI PHARM CO., LTD., priority 2024, published 2025).

Tested on: adipocytes (3T3L1 adipocytes), normal fibroblasts, vascular endothelial cells and skeletal muscle cells
Conditions: Gupta, Aest Plast Sur, 33:346-352, 2009

In the case of `C[C@H](CCC(=O)O)[C@H]1CC[C@H]2[C@@H]3CC[C@@H]4C[C@H](O)CC[C@]4(C)[C@H]3C[C@H](O)[C@]12C` [DCA, (4R)-4-[(3R,5R,8R,9S,10S,12S,13R,14S,17R)-3,12-dihydroxy-10,13-dimethyl-2,3,4,5,6,7,8,9,11,12,14,15, 16,17-tetradecahydro-1H-cyclopenta[a]phenanthren-17-yl] pentanoic acid], the “cell lysis selectivity (cell-lytic rather than fat-dissolving)” value is listed as “non-selectively dissolves not only adipocytes (3T3L1 adipocytes) but also normal fibroblasts, vascular endothelial cells and skeletal muscle cells”.
